{"source": "paper PMC12696368", "about": "“Ancestral Chaperonins Provide the First Structural Glimpse into Early Multimeric Protein Evolution” (Molecular Biology and Evolution, 2025)", "assay_in_all_cases": "phosphate release (BIOMOL GREEN), […]-60 °C", "assay_type_in_all_cases": "biochemical", "settings_in_all_cases": "0.5 mM ATP, 5 mM MgCl2, 150 mM KCl, 50 mM HEPES pH 7.4", "key": {"E. coli GroEL": {"molecular_target": "T1, E. coli GroEL (Escherichia coli, UniProt P0A6F5)", "T1 construct": "recombinant, expressed and purified as the ancestral proteins (C-terminal His-tag, E. coli BL21 (DE3)); no GroES; double ring of two seven-subunit rings", "T1 sequence (P0A6F5 2-548)": "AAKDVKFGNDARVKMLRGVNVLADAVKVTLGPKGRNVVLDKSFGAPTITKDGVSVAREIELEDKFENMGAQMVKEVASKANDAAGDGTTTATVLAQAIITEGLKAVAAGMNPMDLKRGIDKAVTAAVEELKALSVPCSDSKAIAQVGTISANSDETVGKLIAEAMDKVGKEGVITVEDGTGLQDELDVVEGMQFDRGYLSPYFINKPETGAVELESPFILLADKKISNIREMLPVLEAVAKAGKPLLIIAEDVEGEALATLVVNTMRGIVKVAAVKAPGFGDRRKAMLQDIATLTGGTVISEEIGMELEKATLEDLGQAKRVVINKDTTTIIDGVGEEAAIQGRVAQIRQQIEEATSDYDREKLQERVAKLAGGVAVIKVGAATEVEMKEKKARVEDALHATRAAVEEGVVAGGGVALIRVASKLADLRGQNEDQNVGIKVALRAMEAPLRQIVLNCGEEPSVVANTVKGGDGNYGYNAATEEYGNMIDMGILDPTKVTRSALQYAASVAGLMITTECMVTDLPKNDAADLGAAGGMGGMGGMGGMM"}, "ACIII": {"molecular_target": "T2, ACIII (synthetic construct, UniProt Z9ZN04QL74)", "T2 construct": "ancestral reconstruction, C-terminal His-tag, expressed in E. coli BL21 (DE3); eight-subunit double rings", "T2 sequence (Z9ZN04QL74 1-518)": "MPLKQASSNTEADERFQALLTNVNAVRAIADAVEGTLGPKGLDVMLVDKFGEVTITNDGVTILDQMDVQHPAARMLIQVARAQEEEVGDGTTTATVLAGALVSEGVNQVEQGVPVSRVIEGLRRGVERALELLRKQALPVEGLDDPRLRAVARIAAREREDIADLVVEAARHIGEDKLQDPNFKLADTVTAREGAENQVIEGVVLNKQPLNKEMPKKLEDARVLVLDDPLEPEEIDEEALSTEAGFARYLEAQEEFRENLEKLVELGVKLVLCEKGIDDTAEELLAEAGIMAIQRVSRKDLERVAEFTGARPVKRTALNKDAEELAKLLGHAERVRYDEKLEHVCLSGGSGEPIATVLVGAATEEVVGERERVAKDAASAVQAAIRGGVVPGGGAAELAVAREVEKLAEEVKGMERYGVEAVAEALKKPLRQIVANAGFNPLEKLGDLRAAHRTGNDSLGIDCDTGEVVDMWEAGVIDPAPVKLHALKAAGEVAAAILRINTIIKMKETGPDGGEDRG"}, "ACI": {"molecular_target": "T3, ACI (synthetic construct, UniProt Z9T0T8YL69)", "T3 construct": "ancestral reconstruction, C-terminal His-tag, expressed in E. coli BL21 (DE3); single heptameric ring"}, "AFCB": {"molecular_target": "T4, AFCB (synthetic construct, UniProt Z9BU06U866)", "T4 construct": "ancestral reconstruction, C-terminal His-tag, expressed in E. coli BL21 (DE3); 7-subunit double rings"}}}
{"smiles": "Nc1ncnc2c1ncn2[C@@H]1O[C@H](COP(=O)(O)OP(=O)(O)OP(=O)(O)O)[C@@H](O)[C@H]1O", "note": "[ATP]", "values": [{"measurement": "phosphate release (BIOMOL GREEN), 30-60 °C", "setting": "E. coli GroEL", "result": "E. coli GroEL, ACI and ACIII exhibited similar hydrolysis patterns"}, {"measurement": "phosphate release (BIOMOL GREEN), 30-60 °C", "setting": "ACIII", "result": "E. coli GroEL, ACI and ACIII exhibited similar hydrolysis patterns"}, {"measurement": "phosphate release (BIOMOL GREEN), 30-60 °C", "setting": "ACI", "result": "E. coli GroEL, ACI and ACIII exhibited similar hydrolysis patterns"}, {"measurement": "phosphate release (BIOMOL GREEN), 30-60 °C", "setting": "AFCB", "result": "showed the highest rate of ATP hydrolysis, followed by AFCB"}]}
